For data set [1], the target named is T1, α-glucosidase (Saccharomyces cerevisiae, UniProt P53341). In words: biochemical. It counts as biochemical. Conditions: for IC50: yeast form of α-glucosidase, mean ± S.E. of at least three different experiments; for activity against α-glucosidase (in words): SAR discussion / conclusion, compared with acarbose. The method, then: The newly synthesized benzo[d]imidazole-amide-1,2,3-triazole-N-arylacetamide hybrids 8a–n were evaluated against yeast form of α-glucosidase.

The test system of data set [2] is normal human cell line (HDF). In words: In vitro cytotoxicity by MTT method, HDF. To be noted: normal cell line HDF. In general terms: Formazan colour is commonly taken as a measure of viable cells.
A short description of data set [3]: In vitro cytotoxicity by MTT method, HDF. To be noted: human, HDF normal human cells.
The test system of data set [4] is breast cancer cell line (MCF-7). In words: In vitro cytotoxicity by MTT method, MCF-7. Conditions: cancer cell line MCF-7.
A short description of data set [5]: In vitro cytotoxicity by MTT method, MCF-7. To be noted: human, MCF-7 breast cancer cells.
In data set [6] the target is T1, α-glucosidase. Kind of data set: Kinetic study of α-glucosidase inhibition (Lineweaver–Burk plots). It counts as biochemical, yeast. The method, then:
Therefore, values of Vmax remained constant while the values of Km increased. […] Besides, the Ki value was 40.0 µM that was obtained by the secondary plot of Lineweaver–Burk plots (Fig. 2b).
Figure 2 Inhibitory kinetics of compound 8c on α-glucosidase. (a) Lineweaver–Burk plots for inhibition of compound 8c. (b) The secondary plot of Lineweaver–Burk plots for determination Ki value of compound 8c.
In vitro anti-α-glucosidase inhibition and kinetic study of the new compounds 8a–n were performed exactly according to our pervious reported works.

Setting [7] is: IC50 (α-glucosidase inhibitory activity).
[8] abbreviates: read-out: IC50 (α-glucosidase inhibitory activity).

Like-named read-outs stand apart in the source and are kept apart here. Bounds are passed on as bounds.

T1 sequence (P53341 whole entry): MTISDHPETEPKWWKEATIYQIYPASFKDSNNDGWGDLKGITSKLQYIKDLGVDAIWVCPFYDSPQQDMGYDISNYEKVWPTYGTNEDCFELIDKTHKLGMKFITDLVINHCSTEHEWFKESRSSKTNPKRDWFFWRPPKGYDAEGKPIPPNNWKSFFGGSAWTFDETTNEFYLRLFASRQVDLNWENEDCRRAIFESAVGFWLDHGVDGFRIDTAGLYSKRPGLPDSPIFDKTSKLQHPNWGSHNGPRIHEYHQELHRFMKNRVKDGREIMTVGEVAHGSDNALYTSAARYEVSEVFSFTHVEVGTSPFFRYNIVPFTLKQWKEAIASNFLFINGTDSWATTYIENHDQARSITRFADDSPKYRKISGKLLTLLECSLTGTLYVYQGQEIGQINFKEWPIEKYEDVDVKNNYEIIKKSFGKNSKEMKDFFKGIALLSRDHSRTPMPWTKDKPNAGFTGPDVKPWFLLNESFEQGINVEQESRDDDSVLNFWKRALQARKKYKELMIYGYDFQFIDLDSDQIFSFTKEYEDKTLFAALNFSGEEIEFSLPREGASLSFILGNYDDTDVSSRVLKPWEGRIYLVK

The compound `O=C(Cn1cc(CNC(=O)c2nc3ccccc3[nH]2)nn1)Nc1ccc(F)cc1` [8j, N-((1-(2-((4-fluorophenyl)amino)-2-oxoethyl)-1H-1,2,3-triazol-4-yl)methyl)-1H-benzo[d]imidazole-2-carboxamide] had a melting point of 245 to 247 °C. Moreover, in data set [1] (setting [7]), the IC50 was over 750 µM.
As for `Cc1ccc(NC(=O)Cn2cc(CNC(=O)c3nc4ccccc4[nH]3)nn2)c(C)c1` [8f, N-((1-(2-((2,4-dimethylphenyl)amino)-2-oxoethyl)-1H-1,2,3-triazol-4-yl)methyl)-1H-benzo[d]imidazole-2-carboxamide], the melting point was in the range of 226 to 228 °C. The IC50 in data set [1] (setting [8]) was 422.6 ± 1.1 µM.
For `O=C(Cn1cc(CNC(=O)c2nc3ccccc3[nH]2)nn1)Nc1ccccc1` [8a, N-((1-(2-oxo-2-(phenylamino)ethyl)-1H-1,2,3-triazol-4-yl)methyl)-1H-benzo[d]imidazole-2-carboxamide], the “activity against α-glucosidase (in words)” value in data set [1] is on record as “have not activity”. The half-inhibitory concentration (IC50) in data set [1] (setting [8]) was over 750 µM.
As for `O=C(Cn1cc(CNC(=O)c2nc3ccccc3[nH]2)nn1)Nc1ccc([N+](=O)[O-])cc1` [8n, N-((1-(2-((4-nitrophenyl)amino)-2-oxoethyl)-1H-1,2,3-triazol-4-yl)methyl)-1H-benzo[d]imidazole-2-carboxamide], the melting point was in the range of 259 to 261 °C. For the same compound, the 50% inhibitory concentration (IC50) in data set [1] (setting [8]) was over 750 µM.
The compound `Cc1cccc(NC(=O)Cn2cc(CNC(=O)c3nc4ccccc4[nH]3)nn2)c1` [8c, N-((1-(2-oxo-2-(m-tolylamino)ethyl)-1H-1,2,3-triazol-4-yl)methyl)-1H-benzo[d]imidazole-2-carboxamide] registered a melting point of 206 to 208 °C. The “cytotoxic activity (in words)” value in data set [2] was “did not show cytotoxic activity”. Besides, the IC50 in data set [3] was over 200 µM. For the same compound, in data set [1] (setting [7]), the IC50 was determined as 49 ± 0.4 µM. Besides, the “fold more potent than positive control (acarbose)” value in data set [1] (ratio of IC50 values vs acarbose) came to 15.3 fold. In data set [4], the “cytotoxic activity (in words)” value is reported as “did not show cytotoxic activity”. Also, the IC50 in data set [5] is over 200 µM. Also, the “inhibition mechanism against α-glucosidase” value in data set [6] (Lineweaver–Burk plot, Vmax constant, Km increased) was “competitive inhibitor”. Further, in data set [6] (secondary plot of Lineweaver–Burk plots), the affinity, expressed as Ki, was 40 µM.
For the compound `O=C(Cn1cc(CNC(=O)c2nc3ccccc3[nH]2)nn1)Nc1ccc(Cl)cc1Cl` [8l, N-((1-(2-((2,4-dichlorophenyl)amino)-2-oxoethyl)-1H-1,2,3-triazol-4-yl)methyl)-1H-benzo[d]imidazole-2-carboxamide], the melting point was 247 to 249 °C. Besides, in data set [1] (setting [8]), the IC50 is 668.5 ± 1.4 µM.
The compound `Cc1cccc(C)c1NC(=O)Cn1cc(CNC(=O)c2nc3ccccc3[nH]2)nn1` [8g, N-((1-(2-((2,6-dimethylphenyl)amino)-2-oxoethyl)-1H-1,2,3-triazol-4-yl)methyl)-1H-benzo[d]imidazole-2-carboxamide] yielded a melting point of 222 to 224 °C. Further, the “cytotoxic activity (in words)” value in data set [2] is given as “did not show cytotoxic activity”. For the same compound, the IC50 in data set [3] was over 200 µM. Besides, in data set [1] (setting [8]), the half-inhibitory concentration (IC50) was 125.6 ± 0.3 µM. In data set [4], the “cytotoxic activity (in words)” value is reported as “did not show cytotoxic activity”. The compound also gave an IC50 in data set [5] of over 200 µM.
In turn, `O=C(Cn1cc(CNC(=O)c2nc3ccccc3[nH]2)nn1)Nc1ccc(Cl)cc1` [8k, N-((1-(2-((4-chlorophenyl)amino)-2-oxoethyl)-1H-1,2,3-triazol-4-yl)methyl)-1H-benzo[d]imidazole-2-carboxamide] showed a melting point of 236 to 238 °C. In addition, the IC50 in data set [1] (setting [7]) is 134.2 ± 0.9 µM.
In the case of `CCc1ccc(NC(=O)Cn2cc(CNC(=O)c3nc4ccccc4[nH]3)nn2)cc1` [8h, N-((1-(2-((4-ethylphenyl)amino)-2-oxoethyl)-1H-1,2,3-triazol-4-yl)methyl)-1H-benzo[d]imidazole-2-carboxamide], the melting point fell in the range of 213 to 215 °C. Further, the IC50 in data set [1] (setting [8]) came out at 251.9 ± 1.6 µM.
Regarding `COc1ccc(NC(=O)Cn2cc(CNC(=O)c3nc4ccccc4[nH]3)nn2)cc1` [8i, N-((1-(2-((4-methoxyphenyl)amino)-2-oxoethyl)-1H-1,2,3-triazol-4-yl)methyl)-1H-benzo[d]imidazole-2-carboxamide], the melting point lay within 235 to 237 °C. For the same compound, the IC50 in data set [1] (setting [7]) is over 750 µM.
`Cc1ccccc1NC(=O)Cn1cc(CNC(=O)c2nc3ccccc3[nH]2)nn1` [8b, N-((1-(2-oxo-2-(o-tolylamino)ethyl)-1H-1,2,3-triazol-4-yl)methyl)-1H-benzo[d]imidazole-2-carboxamide] returned an IC50 in data set [1] (setting [7]) of over 750 µM. Besides, the “activity against α-glucosidase (in words)” value in data set [1] was “have not activity”.
On to `Cc1cccc(NC(=O)Cn2cc(CNC(=O)c3nc4ccccc4[nH]3)nn2)c1C` [8e, N-((1-(2-((2,3-dimethylphenyl)amino)-2-oxoethyl)-1H-1,2,3-triazol-4-yl)methyl)-1H-benzo[d]imidazole-2-carboxamide], for which the melting point was in the range of 216 to 218 °C. Besides, the “cytotoxic activity (in words)” value in data set [2] was “did not show cytotoxic activity”. Further, the IC50 in data set [3] was over 200 µM. The “inhibitory activity diminished (fold) relative to 8c” value in data set [1] (addition of a 2-methyl group to 3-methyl derivative 8c) is “around 2.5 fold”. Also, the IC50 in data set [1] (setting [8]) is 119.2 ± 0.8 µM. Moreover, the “cytotoxic activity (in words)” value in data set [4] is recorded as “did not show cytotoxic activity”. For the same compound, the IC50 in data set [5] was over 200 µM.
The compound `Cc1ccc(NC(=O)Cn2cc(CNC(=O)c3nc4ccccc4[nH]3)nn2)cc1` [8d, N-((1-(2-oxo-2-(p-tolylamino)ethyl)-1H-1,2,3-triazol-4-yl)methyl)-1H-benzo[d]imidazole-2-carboxamide] showed a melting point of 209 to 211 °C. Further, in data set [1] (setting [7]), the IC50 is over 750 µM. Further, the “activity against α-glucosidase (in words)” value in data set [1] is reported as “have not activity”.
Take `O=C(Cn1cc(CNC(=O)c2nc3ccccc3[nH]2)nn1)Nc1ccc(Br)cc1` [8m, N-((1-(2-((4-bromophenyl)amino)-2-oxoethyl)-1H-1,2,3-triazol-4-yl)methyl)-1H-benzo[d]imidazole-2-carboxamide]: the melting point is 227 to 229 °C. In addition, the IC50 in data set [1] (setting [7]) turned out to be 183.6 ± 0.8 µM.

Broadly, the IC50 is the midpoint of a concentration-inhibition curve. Broadly, the melting point is the temperature, or range, at which the solid turns liquid. One may read the Ki as a dissociation constant, usually derived from enzyme kinetics or from competition with a known ligand. The low end stands for higher affinity, the high end for lower affinity.
